Measurements published in the NIST ThermoML archive (doi:10.1021/acs.jced.9b00696).
± gives the expanded uncertainty stated by the source.

Key:
[1] = Crystal; DSC
[2] = Molar enthalpy of transition or fusion; conditions: Crystal; DSC

SMILES: C[C@]12CCC3=C4CCC(=O)C=C4CC[C@H]3[C@@H]1CC[C@@]2(O)CC#N [dienogest]
- Triple point temperature [1]: 485.01 ± 0.81 K
- Molar enthalpy of transition or fusion [2]: 7.23 ± 0.335 kcal/mol
